Results on two compounds are retold here after US12083109B2, “Neurokinin antagonists and uses thereof” (California Institute of Technology, priority 2017, dated 2024).

Entries after “also recorded” stand apart in the source; their conditions may differ.

Assay [1] concerns the target T1, hM4DREADD in Tac2+ neurons (Homo sapiens, UniProt P08173, A203G/Y113C).
T1 construct: host or cells: Tac2+ neurons of Tac2-Cre mice (dBNSTa, DMH or CeA), transduced in vivo with AAV2-EF1a-DIO-hM4D-mCherry
T1 sequence (P08173 1-479 Y113C/A203G): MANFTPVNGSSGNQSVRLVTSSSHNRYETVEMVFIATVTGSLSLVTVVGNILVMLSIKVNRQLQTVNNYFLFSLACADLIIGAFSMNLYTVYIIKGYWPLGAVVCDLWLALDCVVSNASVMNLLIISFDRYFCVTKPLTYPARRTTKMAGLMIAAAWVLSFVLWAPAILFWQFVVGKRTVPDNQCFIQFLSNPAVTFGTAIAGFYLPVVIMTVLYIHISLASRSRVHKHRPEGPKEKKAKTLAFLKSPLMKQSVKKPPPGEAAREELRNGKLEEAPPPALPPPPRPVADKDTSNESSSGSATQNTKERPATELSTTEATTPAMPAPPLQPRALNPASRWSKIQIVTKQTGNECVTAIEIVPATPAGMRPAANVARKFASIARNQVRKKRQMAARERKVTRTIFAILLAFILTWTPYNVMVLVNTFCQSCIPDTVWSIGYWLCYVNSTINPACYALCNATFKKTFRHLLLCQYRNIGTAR
Put plainly: Shock reactivity, CNO silencing of Tac2+ neurons (hM4DREADD). The format is in vivo, mouse. As to conditions: hM4DREADD in CeA. The method, then:
The protocol for tone trace fear conditioning was performed as previously described (Cushman et al., 2014; incorporated by reference in its entirety) using fear conditioning boxes previously described in detail (Haubensak et al., 2010; Kunwar et al., 2015; incorporated by reference in their entirety). Briefly, mice were transported in squads of four on a white cart to a novel behavioral testing room containing 4 sound-attenuating fear-conditioning chambers (Med Associates). This “training context” was comprised of flat grid flooring (wired to a shock generator and scrambler for footshock delivery, Med Associates), houselights, and the presence of an internal fan for background noise. Chambers were sprayed with 70% Simple Green solution on the underlying chamber pan to generate a unique contextual scent and chambers were cleaned with 70% EtOH between squads. […] Freezing behavior during the baseline period as well as during each tone presentation (“during”) and trace interval (“post”) were assessed as previously described (Zelikowsky et al., 2014; incorporated by reference in its entirety) using automated near-infrared video tracking equipment and computer software (VideoFreeze, Med Associates). Shock reactivity (motion, arbitrary units) was measured during the 2 second shock US as well as the 3 seconds immediately following. […]

The target of a further assay is T2, Nk3R (Mus musculus, UniProt P47937).
T2 sequence (P47937 1-452): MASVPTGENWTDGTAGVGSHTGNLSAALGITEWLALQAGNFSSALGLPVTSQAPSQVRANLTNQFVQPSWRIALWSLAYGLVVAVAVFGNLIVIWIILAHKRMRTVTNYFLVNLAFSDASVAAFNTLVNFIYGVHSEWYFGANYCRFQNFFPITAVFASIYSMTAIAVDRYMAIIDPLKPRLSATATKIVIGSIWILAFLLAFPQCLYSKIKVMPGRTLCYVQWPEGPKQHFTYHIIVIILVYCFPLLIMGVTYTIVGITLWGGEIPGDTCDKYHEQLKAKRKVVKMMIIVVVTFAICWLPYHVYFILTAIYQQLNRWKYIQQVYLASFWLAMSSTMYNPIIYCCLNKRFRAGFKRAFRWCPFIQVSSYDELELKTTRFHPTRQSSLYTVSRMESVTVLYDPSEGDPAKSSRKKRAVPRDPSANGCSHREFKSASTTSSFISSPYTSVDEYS
Nature of the assay: Social interaction assay, osanetant. It is filed as in vivo. Set-up: from tissue; host or cells: Living mice (wild-type C57Bl6/N males, Charles River). As to conditions: SIS mice; acute systemic osanetant; listed as Osanetant. The method, then: Mice were administered the Nk3R antagonist osanetant (Axon Medchem, Axon 1533) either systemically or intra-brain region. Osanctant was dissolved in saline with 0.1% Tween 20 (vehicle). For systemic administration mice received an intraperitoneal (i.p.) injection (5 mg/kg) 20 minutes prior to behavioral testing. For microinfusions, guide cannulas were removed from mice and replaced with injector cannulas (Plastics One), which protruded 0.5 mm from the tip of the guide cannula. Injectors were attached to 5 μl Hamilton syringes with PE tubing (Plastics One) and mounted on a microinfusion pump (Harvard Apparatus) for controlled infusion of osanetant (0.3 μl vehicle with 375 ng dose per site injected over 6 minutes). For experiments using systemic administration of clozapine-N-oxide (CNO), CNO (Enzo Life Sciences-Biomol, BML-NS105-0005) was dissolved in saline (9 g/L NaCl) and injected (i.p.) at 5 mg/kg for hM4DREADD silencing or 2 mg/kg for hM3DREADD activation 20 minutes prior to behavioral testing. CNO was also administered chronically in drinking water (0.5 mg CNO/100 ml water).

`C[N+]1([O-])CCN(C2=Nc3cc(Cl)ccc3Nc3ccccc32)CC1` [CNO, clozapine-N-oxide]: in assay [1], the SIS-enhanced shock reactivity entry is listed as “suppressed; also recorded: attenuated”.

Regarding `CC(=O)N(C)C1(c2ccccc2)CCN(CCC[C@]2(c3ccc(Cl)c(Cl)c3)CCCN(C(=O)c3ccccc3)C2)CC1` [osanetant, N-(1-{3-[(3R)-1-benzoyl-3-(3,4-dichlorophenyl)piperidin-3-yl]propyl}-4-phenylpiperidin-4-yl)-N-methylacetamide], the “SIS-induced decreased social interaction (time in social zone)” value on Nk3R was “blocked; also recorded: attenuated”.
